Data from PubChem BioAssay (NCI).
Several values for one entry are separate records, joined by “and”; a condition that tells them apart may be missing. Identical values can stand only once.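 Five concentrations, 48 hours, 96-well plates. GI50: concentration for 50% inhibition of growth. TGI: concentration producing complete growth inhibition.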

How the values were obtained:
Assay in all cases: DTP human tumour cell line panel, 48 h
NCI-H226 lung = test system: NCI-H226 lung
SNB-75 CNS = test system: SNB-75 CNS
KM12 colon = test system: KM12 colon
HOP-92 NSCLC = test system: HOP-92 NSCLC
UO-31 renal = test system: UO-31 renal
HCT-15 colon = test system: HCT-15 colon
OVCAR-8 ovarian = test system: OVCAR-8 ovarian
SNB-19 CNS = test system: SNB-19 CNS
RXF 393 renal = test system: RXF 393 renal
NCI-H23 lung = test system: NCI-H23 lung

SMILES | TGI (NCI-H226 lung) | TGI (SNB-75 CNS) | TGI (KM12 colon) | TGI (HOP-92 NSCLC) | TGI (UO-31 renal) | TGI (HCT-15 colon) | TGI (OVCAR-8 ovarian) | TGI (SNB-19 CNS) | TGI (RXF 393 renal) | TGI (NCI-H23 lung) | GI50 (NCI-H226 lung) | GI50 (SNB-75 CNS) | GI50 (KM12 colon) | GI50 (HOP-92 NSCLC) | GI50 (UO-31 renal) | GI50 (HCT-15 colon) | GI50 (OVCAR-8 ovarian) | GI50 (SNB-19 CNS) | GI50 (RXF 393 renal) | GI50 (NCI-H23 lung)
O=C(O)c1ccc(S(=O)(=O)N=Nc2c(O)[nH]c3ccccc23)cc1 | > 100 µM | > 100 µM | > 100 µM | > 100 µM | > 100 µM | > 100 µM | > 100 µM | > 100 µM | > 100 µM | > 100 µM | – | – | – | – | – | – | – | – | – | –
CCN(Cc1nc2cc(C(F)(F)F)ccc2nc1-c1ccccc1)c1ccc(OC)c(OC)c1 | 29 µM | 71.7 µM | 43.6 µM | 30.4 µM | 46.2 µM | 34.5 µM | 18.7 µM | 50.4 µM | 9.09 µM | 34.2 µM | 13.2 µM | 24.5 µM | 19.9 µM | 15 µM | 19.8 µM | 16.3 µM | 1.51 µM | 24.6 µM | 0.312 µM | 13.5 µM
CCCC(=O)NC(c1ccc2c(c1)OCO2)c1ccc2cccnc2c1O (configuration not stated) | 8.63 µM | 73 µM | > 100 µM | 36.1 µM | 18.4 µM | 24.6 µM | > 100 µM | > 100 µM | 7.54 µM | > 100 µM | 2.21 µM | 2.18 µM | 2.09 µM | 1.55 µM | 0.557 µM | 0.394 µM | 1.48 µM | 2.28 µM | 1.47 µM | 1.78 µM
COc1cc(-c2nc(SCC(=O)Nc3ccc(C(C)=O)cc3)[nH]c(=O)c2C#N)cc(OC)c1OC | > 100 µM | > 100 µM | > 100 µM | > 100 µM | > 100 µM | > 100 µM | > 100 µM | > 100 µM | > 100 µM | > 100 µM | 89.8 µM | 28.5 µM | 63.6 µM | 22.6 µM | 36.6 µM | > 100 µM | 73.7 µM | 64 µM | 40.1 µM | > 100 µM
Cc1ccc(S(=O)(=O)NC(CCC(=O)Nc2ccccc2)C(=O)Nc2ccccc2)cc1 (configuration not stated) | 2.59 µM | – | – | 0.544 µM | 3.39 µM | – | 2.57 µM | – | 2.25 µM | – | 0.447 µM | – | – | 0.157 µM | 0.274 µM | – | 0.5 µM | – | 0.662 µM | –
CN(/N=C/c1ccnc2ccccc12)c1ccc([N+](=O)[O-])cc1[N+](=O)[O-] | > 100 µM | 40 µM | > 100 µM | > 100 µM | > 100 µM | > 100 µM | > 100 µM | > 100 µM | > 100 µM | > 100 µM | – | – | – | – | – | – | – | – | – | –
CC12CCc3ccccc3C1=Nc1ccccc12 (configuration not stated) | 89.8 µM | > 100 µM | 91.9 µM | 54 µM | > 100 µM | > 100 µM | > 100 µM | > 100 µM | > 100 µM | > 100 µM | – | – | – | – | – | – | – | – | – | –
Oc1ccc(Br)cc1/C=N/NC(=S)NC12CC3CC(CC(C3)C1)C2 | 4.8 µM | 7.15 µM | 4.35 µM | 6.58 µM | 2.78 µM | 3.49 µM | 4.4 µM | 12.4 µM | 3.36 µM | – | 1.95 µM | 2.03 µM | 1.8 µM | 2.35 µM | 1.33 µM | 0.734 µM | 1.6 µM | 2.87 µM | 1.52 µM | –
CCc1ccc(/C(C)=N/NC(N)=S)cc1 | – | – | > 100 µM | > 100 µM | > 100 µM | – | > 100 µM | > 100 µM | > 100 µM | > 100 µM | – | – | – | – | – | – | – | – | – | –
COc1ccc(OC)c(-c2cc(-c3ccccc3)nn2-c2ccc(S(N)(=O)=O)cc2)c1 | 33.6 µM | – | 21.6 µM | 50.1 µM | 50.4 µM | 17.1 µM | 27 µM | – | – | 30.2 µM | 15 µM | – | 6.93 µM | 15.5 µM | 17.8 µM | 5.07 µM | 10.2 µM | – | – | 15.8 µM
CC(C)c1cc(CNc2nc(Nc3cc(C4CC4)[nH]n3)cc(N3CCN(C)CC3)n2)on1 | 4.18 µM and 3.6 µM | – | > 10 µM and 10.7 µM | 0.821 µM and 0.182 µM | > 10 µM and 5.9 µM | > 10 µM and 8.47 µM | > 10 µM and 14.8 µM | > 10 µM and 23.3 µM | – | > 10 µM and 3.37 µM | 0.363 µM and 0.0576 µM | – | – | 0.16 µM and 0.0273 µM | 2 µM and 0.688 µM | – | 3.27 µM and 0.42 µM | 4.59 µM and 0.471 µM | – | 1.54 µM and 0.173 µM
N#CCC(=O)N/N=C1/C(=O)NC(=O)C(=O)C1c1nc2ccccc2s1 (configuration not stated) | > 100 µM | > 100 µM | – | > 100 µM | > 100 µM | > 100 µM | > 100 µM | > 100 µM | > 100 µM | > 100 µM | – | – | – | – | – | – | – | – | – | –
CCN(CC)CCCCCOc1cc(O)c2c(=O)cc(-c3ccccc3)oc2c1 | 25.8 µM | 25.6 µM | 9.37 µM | – | 3.64 µM | 3.76 µM | 25.5 µM | 21.3 µM | 3.37 µM | – | 10.5 µM | 13 µM | 2.89 µM | – | 1.85 µM | 1.58 µM | 11.5 µM | 6.76 µM | 1.6 µM | –
C=CC[Se]C(=O)Cc1c(C)n(C(=O)c2ccc(Cl)cc2)c2ccc(OC)cc12 | – | 2.81 µM | 3.42 µM | 4.09 µM | 2.88 µM | 3.87 µM | 3.68 µM | 1.99 µM | – | 3.87 µM | – | 1.48 µM | 1.53 µM | 1.85 µM | 1.54 µM | 1.84 µM | 1.84 µM | 0.657 µM | – | 1.91 µM
CCOC(=O)c1cc2cc(NC(=O)c3cc4cc([N+](=O)[O-])ccc4n3C)ccc2n1C | 46.6 µM | – | > 100 µM | 85 µM | > 100 µM | 51.6 µM | > 100 µM | > 100 µM | > 100 µM | 37 µM | 12 µM | – | 49 µM | 34.9 µM | > 100 µM | 15.4 µM | 49.5 µM | 22.7 µM | 41 µM | 12.3 µM
